± gives the expanded uncertainty stated by the source.
Conditions: Liquid, Closed cell (Static) method

Structure (SMILES): C=CCC [1-butene]
- vapor or sublimation pressure (302.9 K): 343 ± 14 kPa
- vapor or sublimation pressure (307.83 K): 396 ± 14 kPa
- vapor or sublimation pressure (312.96 K): 456 ± 14 kPa
- vapor or sublimation pressure (318.05 K): 521 ± 14 kPa
- vapor or sublimation pressure (322.94 K): 593 ± 14 kPa
- vapor or sublimation pressure (328.06 K): 671 ± 14 kPa
- vapor or sublimation pressure (332.97 K): 759 ± 14 kPa
- vapor or sublimation pressure (337.99 K): 855 ± 14 kPa
- vapor or sublimation pressure (342.98 K): 957 ± 14 kPa
- vapor or sublimation pressure (347.93 K): 1069 ± 14 kPa
- vapor or sublimation pressure (353.18 K): 1197 ± 14 kPa

Structure (SMILES): FC(F)(F)C1(F)OC1(F)F (centres undefined) [2,2,3-trifluoro-3-(trifluoromethyl)oxirane]
- vapor or sublimation pressure (302.95 K): 786 ± 14 kPa
- vapor or sublimation pressure (307.93 K): 896 ± 14 kPa
- vapor or sublimation pressure (312.93 K): 1015 ± 14 kPa
- vapor or sublimation pressure (317.86 K): 1150 ± 14 kPa
- vapor or sublimation pressure (322.92 K): 1298 ± 14 kPa
- vapor or sublimation pressure (327.88 K): 1474 ± 14 kPa
- vapor or sublimation pressure (332.87 K): 1658 ± 14 kPa
- vapor or sublimation pressure (337.87 K): 1864 ± 15 kPa
- vapor or sublimation pressure (342.88 K): 2075 ± 15 kPa
- vapor or sublimation pressure (347.85 K): 2313 ± 15 kPa

Structure (SMILES): FCF [difluoromethane]
- vapor or sublimation pressure (280.59 K): 1022 ± 14 kPa
- vapor or sublimation pressure (283.05 K): 1109 ± 14 kPa
- vapor or sublimation pressure (285.52 K): 1195 ± 14 kPa
- vapor or sublimation pressure (288.02 K): 1280 ± 14 kPa
- vapor or sublimation pressure (290.46 K): 1364 ± 14 kPa
- vapor or sublimation pressure (293.02 K): 1474 ± 14 kPa
- vapor or sublimation pressure (295.49 K): 1578 ± 14 kPa
- vapor or sublimation pressure (298.01 K): 1684 ± 14 kPa
- vapor or sublimation pressure (300.48 K): 1793 ± 15 kPa
- vapor or sublimation pressure (302.94 K): 1918 ± 15 kPa
- vapor or sublimation pressure (305.46 K): 2051 ± 15 kPa
- vapor or sublimation pressure (307.91 K): 2179 ± 15 kPa
- vapor or sublimation pressure (310.48 K): 2318 ± 15 kPa
- vapor or sublimation pressure (312.9 K): 2459 ± 15 kPa
- vapor or sublimation pressure (315.43 K): 2614 ± 15 kPa
- vapor or sublimation pressure (317.89 K): 2772 ± 15 kPa
- vapor or sublimation pressure (320.41 K): 2948 ± 15 kPa
- vapor or sublimation pressure (322.92 K): 3120 ± 15 kPa
- vapor or sublimation pressure (325.42 K): 3303 ± 15 kPa
- vapor or sublimation pressure (327.9 K): 3498 ± 16 kPa
- vapor or sublimation pressure (330.35 K): 3694 ± 16 kPa
- vapor or sublimation pressure (332.91 K): 3910 ± 16 kPa
- vapor or sublimation pressure (335.4 K): 4138 ± 16 kPa
- vapor or sublimation pressure (337.93 K): 4370 ± 16 kPa
- vapor or sublimation pressure (340.43 K): 4602 ± 17 kPa
- vapor or sublimation pressure (342.88 K): 4854 ± 17 kPa
- vapor or sublimation pressure (345.4 K): 5117 ± 17 kPa
- vapor or sublimation pressure (347.89 K): 5392 ± 17 kPa

From the NIST ThermoML archive (doi:10.1016/j.jct.2013.01.017)
